Where two headings read alike, the source gives them in different places.
What was measured:
TCPTP (13–358) = biological target: T1, TCPTP (13–358) (Homo sapiens, UniProt P17706); test: TCPTP inhibition assay with DiFMUP as substrate; assay type: biochemical; conditions: read-out: IC50 TCPTP; means ± SD of three replications
T1 sequence (P17706 13-358): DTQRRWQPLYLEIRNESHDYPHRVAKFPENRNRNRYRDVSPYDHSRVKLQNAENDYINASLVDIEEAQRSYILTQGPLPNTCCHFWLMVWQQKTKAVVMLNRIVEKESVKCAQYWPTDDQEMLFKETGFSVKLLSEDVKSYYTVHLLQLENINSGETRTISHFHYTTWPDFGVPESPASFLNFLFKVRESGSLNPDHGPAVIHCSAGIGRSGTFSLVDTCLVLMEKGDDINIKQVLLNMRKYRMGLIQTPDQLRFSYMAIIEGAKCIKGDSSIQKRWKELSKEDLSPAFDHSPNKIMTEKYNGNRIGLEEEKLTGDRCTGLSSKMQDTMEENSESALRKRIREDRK

PTP1B (1–321) = biological target: T2, PTP1B (1–321) (Homo sapiens, UniProt P18031); test: PTP1B inhibition assay with DiFMUP as substrate
T2 sequence (P18031 1-321): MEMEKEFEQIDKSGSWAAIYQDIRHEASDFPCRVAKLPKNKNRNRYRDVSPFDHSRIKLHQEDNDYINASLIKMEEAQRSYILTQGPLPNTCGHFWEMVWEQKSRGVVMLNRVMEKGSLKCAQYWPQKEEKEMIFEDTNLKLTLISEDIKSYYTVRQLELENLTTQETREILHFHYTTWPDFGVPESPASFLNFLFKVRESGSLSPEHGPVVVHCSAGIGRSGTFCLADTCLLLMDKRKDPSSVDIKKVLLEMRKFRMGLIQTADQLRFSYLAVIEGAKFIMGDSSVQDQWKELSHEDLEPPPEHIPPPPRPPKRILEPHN

IC50 (TCPTP (13–358)): 71.9 ± 3.87 µM
IC50 (PTP1B (1–321); PTP1B, Table 3, means ± SD of three replications): 26.2 ± 8.58 µM
IC50 (PTP1B (1–321); read-out: IC50 PTP1B, means ± SD of three replications): 26.2 ± 8.58 µM
SMILES: O=S(=O)(O)c1ccc2cc(N=Nc3cc(S(=O)(=O)O)c4cccnc4c3O)ccc2c1 [NSC-87877]
